Laboratory results taken from the supplement of paper PMC12317010.
Where a name gives a salt, the structure may show the parent alone.

Assay: collision cross section in nitrogen (drift tube, single-field); higher = larger gas-phase ion size
[1] = ion type: [M-H], ion source: ESI, ion mode: Negative
[2] = ion type: [M+H], ion source: APCI, ion mode: Positive
[3] = ion type: [M+H], ion source: ESI, ion mode: Positive
[4] = ion type: [M+Na], ion source: ESI, ion mode: Positive
[5] = ion source: APCI, ion mode: Positive, ion type: [M]+ (permanent cation)
[6] = ion source: ESI, ion mode: Positive, ion type: [M]+ (permanent cation)
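Note: chemical standards at 10 µM analysed by drift tube IMS-QTOF MS in about 3.95 torr nitrogen, mean of duplicate injections differing ≤1%, mass error below 10 ppm.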

## O=C(O)C(F)(F)C(F)(F)C(F)(F)C(F)(F)C(F)(F)C(F)(F)C(F)(F)C(F)(F)C(F)(F)C(F)(F)F [Perfluoroundecanoic acid]
[1]
  collision cross section in nitrogen: 183.9 Å²

## N#Cc1ccc(N(CC(N)=O)CC(F)(F)F)cc1C(F)(F)F
[1]
  collision cross section in nitrogen: 163.7 Å²

## COc1ccc(CC#N)cc1 [4-Methoxyphenylacetonitrile]
[2]
  collision cross section in nitrogen: 127.3 Å²

## CN/C(=N\[N+](=O)[O-])NCc1cnc(Cl)s1 [Clothianidin]
[1]
  collision cross section in nitrogen: 151.8 Å²

## C[C@]12CC[C@H]3[C@@H](CCC4=CC(=O)CC[C@@]43C)[C@@H]1CC[C@@H]2C(=O)CO [21-Hydroxyprogesterone]
[3]
  collision cross section in nitrogen: 185.7 Å²
[1]
  collision cross section in nitrogen: 186.5 Å²

## N#Cc1ccc(CC(=NNC(=O)Nc2ccc(OC(F)(F)F)cc2)c2cccc(C(F)(F)F)c2)cc1 [Metaflumizone]
[3]
  collision cross section in nitrogen: 212.4 Å²
[4]
  collision cross section in nitrogen: 220.1 Å²

## Cc1ccc(N=Nc2c(O)ccc3ccccc23)c(C)c1 [C.I. Solvent Orange 7]
[2]
  collision cross section in nitrogen: 163.6 Å²
[3]
  collision cross section in nitrogen: 166.8 Å²

## Nc1c(Cl)cc([N+](=O)[O-])cc1Cl [Dichloran]
[1]
  collision cross section in nitrogen: 131 Å²

## Cc1ccc(C)c(S(=O)(=O)O)c1 [2,5-Dimethylbenzenesulfonic acid monohydrate]
[1]
  collision cross section in nitrogen: 138.2 Å²

## CC(c1cc(C(C)(C)C)cc(C(C)(C)C)c1O)c1cc(C(C)(C)C)cc(C(C)(C)C)c1O [Tetrabutyl ethylidenebisphenol]
[1]
  collision cross section in nitrogen: 224.4 Å²

## COCC(=O)N(c1c(C)cccc1C)[C@H](C)C(=O)OC [Metalaxyl-M]
[2]
  collision cross section in nitrogen: 160.5 Å²
[3]
  collision cross section in nitrogen: 160 Å²
[4]
  collision cross section in nitrogen: 168.8 Å²

## CCCCCCCCC(CCCCCC)C(=O)O (stereo not given) [2-Hexyldecanoic acid]
[1]
  collision cross section in nitrogen: 176.7 Å²

## Cc1ccc(N)c(S(=O)(=O)O)c1 [2-Amino-5-methylbenzenesulfonic acid]
[1]
  collision cross section in nitrogen: 137.9 Å²

## Oc1ccc(Cl)cc1Cc1cc(Cl)ccc1O [Dichlorophen]
[1]
  collision cross section in nitrogen: 155.8 Å²

## CCC(C)(CCCC(C)C)OC(C)=O (stereo not given) [3,7-Dimethyloctan-3-yl acetate]
[1]
  collision cross section in nitrogen: 154.8 Å²

## COc1cc(OC)nc(Sc2cccc(Cl)c2C(=O)O)n1 [Pyrithiobac sodium]
[2]
  collision cross section in nitrogen: 166.7 Å²
[3]
  collision cross section in nitrogen: 166.6 Å²
[4]
  collision cross section in nitrogen: 173.5 Å²

## NCCCN1CCOCC1 [4-Morpholinepropanamine]
[2]
  collision cross section in nitrogen: 128.3 Å²
[3]
  collision cross section in nitrogen: 128.2 Å²

## S=P(N1CC1)(N1CC1)N1CC1 [Thiotepa]
[2]
  collision cross section in nitrogen: 132.5 Å²
[3]
  collision cross section in nitrogen: 132.5 Å²

## Cn1c(-c2ccccc2)cc(-c2ccccc2)[n+]1C [Difenzoquat metilsulfate]
[5]
  collision cross section in nitrogen: 160 Å²
[6]
  collision cross section in nitrogen: 160.8 Å²

## CC(=O)Nc1ccc(C(=O)CCl)cc1 [4'-(Chloroacetyl)acetanilide]
[1]
  collision cross section in nitrogen: 144.9 Å²

## CC(Oc1ccc(Oc2ncc(C(F)(F)F)cc2Cl)cc1)C(=O)O (stereo not given) [Haloxyfop]
[3]
  collision cross section in nitrogen: 180 Å²
[1]
  collision cross section in nitrogen: 190 Å²

## CC(C)(C)c1cc([N+](=O)[O-])cc(C(C)(C)C)c1O [2,6-Di-tert-butyl-4-nitrophenol]
[1]
  collision cross section in nitrogen: 162.2 Å²

## CCCCCCCC/C=C\CCCCCCCC(=O)N(C)CC(=O)O [Oleyl sarcosine]
[2]
  collision cross section in nitrogen: 200.7 Å²
[3]
  collision cross section in nitrogen: 200.6 Å²
[4]
  collision cross section in nitrogen: 196 Å²
[1]
  collision cross section in nitrogen: 191.2 Å²

## COc1ncc(F)c2nc(S(=O)(=O)Nc3c(F)cccc3F)nn12 [Florasulam]
[2]
  collision cross section in nitrogen: 172.3 Å²
[3]
  collision cross section in nitrogen: 172.1 Å²
[4]
  collision cross section in nitrogen: 181.7 Å²
[1]
  collision cross section in nitrogen: 174.5 Å²

## CCCCCCCCCCCCN [1-Dodecanamine]
[3]
  collision cross section in nitrogen: 164 Å²

## CCCCCOC(=O)CCCCC [n-Amyl caproate]
[1]
  collision cross section in nitrogen: 151.6 Å²

## Cc1ccccc1O [o-Cresol]
[1]
  collision cross section in nitrogen: 120.4 Å²

## CC(C)N(C(=O)CCl)c1ccccc1 [Propachlor]
[2]
  collision cross section in nitrogen: 143.4 Å²
[3]
  collision cross section in nitrogen: 143.2 Å²
[4]
  collision cross section in nitrogen: 161.5 Å²

## CCCN(CCC)c1c([N+](=O)[O-])cc(C(F)(F)F)c(N)c1[N+](=O)[O-] [Prodiamine]
[1]
  collision cross section in nitrogen: 171.1 Å²

## COc1cc2ncnc(Nc3cccc(Cl)c3)c2cc1OC [N-(3-Chlorophenyl)-6,7-dimethoxyquinazolin-4-amine]
[2]
  collision cross section in nitrogen: 177.3 Å²
[3]
  collision cross section in nitrogen: 171 Å²
[1]
  collision cross section in nitrogen: 177.1 Å²

## Cc1cc(C)c(S(=O)(=O)O)cc1N=Nc1cc(S(=O)(=O)O)c2ccccc2c1O [FD&C Red 4]
[1]
  collision cross section in nitrogen: 208.6 Å²

## NCCCN(CCO)CCO [2,2'-[(3-Aminopropyl)imino]diethanol]
[2]
  collision cross section in nitrogen: 132.7 Å²
[3]
  collision cross section in nitrogen: 133.5 Å²
[4]
  collision cross section in nitrogen: 135.8 Å²

## c1ccc2c(c1)ccc1cc3c(ccc4ccccc43)cc12 [Dibenz[a,h]anthracene]
Ion type: [M+], ion source: APCI, ion mode: Positive
  collision cross section in nitrogen: 160 Å²

## CCC(=NOC/C=C/Cl)C1=C(O)CC(C2CCOCC2)CC1=O (stereo not given) [Tepraloxydim]
[3]
  collision cross section in nitrogen: 185.8 Å²
[4]
  collision cross section in nitrogen: 191.1 Å²
[1]
  collision cross section in nitrogen: 181.1 Å²

## CCCCCCCCCC[N+](C)(C)CCCCCCCCCC [Didecyldimethylammonium chloride]
[5]
  collision cross section in nitrogen: 208.2 Å²
[6]
  collision cross section in nitrogen: 209.1 Å²

## CCCCC(CC)COC(=O)CCCCC(=O)OCC(CC)CCCC (stereo not given) [Bis(2-ethylhexyl)hexanedioate]
[4]
  collision cross section in nitrogen: 216.5 Å²

## O=C(OCC1CCC2OC2C1)C1CCC2OC2C1 (stereo not given) [ECC]
[4]
  collision cross section in nitrogen: 158 Å²

## NS(=O)(=O)C(F)(F)C(F)(F)C(F)(F)C(F)(F)C(F)(F)C(F)(F)C(F)(F)C(F)(F)F [Perfluorooctanesulfonamide]
[1]
  collision cross section in nitrogen: 170.4 Å²

## CCn1cc(C(=O)O)c(=O)c2ccc(C)nc21 [Nalidixic acid]
[2]
  collision cross section in nitrogen: 147.5 Å²
[3]
  collision cross section in nitrogen: 147.8 Å²
[4]
  collision cross section in nitrogen: 161.1 Å²

## CCN(Cc1cccc(S(=O)(=O)O)c1)c1ccc(C(=C2C=CC(=[N+](CC)Cc3cccc(S(=O)(=O)O)c3)C=C2)c2ccc(O)cc2S(=O)(=O)[O-])cc1 [FD&C Green No. 3]
[3]
  collision cross section in nitrogen: 259 Å²
[4]
  collision cross section in nitrogen: 260.8 Å²
[1]
  collision cross section in nitrogen: 260.3 Å²

## O=S(=O)(O)CCCN1CCOCC1 [4-Morpholinepropanesulfonic acid]
[2]
  collision cross section in nitrogen: 142.7 Å²
[3]
  collision cross section in nitrogen: 142.4 Å²
[4]
  collision cross section in nitrogen: 154.6 Å²
[1]
  collision cross section in nitrogen: 149.5 Å²

## O=S(=O)(O)c1ccc(N=Nc2c(O)ccc3ccccc23)c2ccccc12 [C.I. Acid Red 88, monosodium salt]
[1]
  collision cross section in nitrogen: 193.7 Å²

## Nc1nc2[nH]cnc2c(=O)[nH]1 [Guanine]
[3]
  collision cross section in nitrogen: 130.3 Å²

## Nc1ccc([As](=O)(O)O)cc1 [(4-Aminophenyl)arsonic acid]
[3]
  collision cross section in nitrogen: 130.9 Å²
[4]
  collision cross section in nitrogen: 144.9 Å²
[1]
  collision cross section in nitrogen: 139 Å²

## CCCCCC(=O)O[C@]1(C(C)=O)CC[C@H]2[C@@H]3CCC4=CC(=O)CC[C@]4(C)[C@H]3CC[C@@]21C [17-((1-Oxohexyl)oxy)pregn-4-ene-3,20-dione]
[4]
  collision cross section in nitrogen: 225.6 Å²
[1]
  collision cross section in nitrogen: 212.9 Å²

## Nc1ccc2c(c1)C(=O)c1ccccc1C2=O [2-Aminoanthraquinone]
[1]
  collision cross section in nitrogen: 144.9 Å²

## CN1CCc2cccc3c2[C@H]1Cc1ccc(O)c(O)c1-3 [Apomorphine hydrochloride]
[2]
  collision cross section in nitrogen: 162.3 Å²
[3]
  collision cross section in nitrogen: 162.5 Å²

## CC(C)(C)c1n[nH]c(=O)n(N)c1=O [Diketometribuzin]
[1]
  collision cross section in nitrogen: 139.3 Å²

## CC(C)(C)[C@H](O)[C@H](Cc1ccc(Cl)cc1)n1cncn1 [Paclobutrazol]
[3]
  collision cross section in nitrogen: 171.5 Å²
[4]
  collision cross section in nitrogen: 189.4 Å²

## Cc1ccc(-c2cc(C(F)(F)F)nn2-c2ccc(S(N)(=O)=O)cc2)cc1 [Celecoxib]
[3]
  collision cross section in nitrogen: 187.3 Å²
[1]
  collision cross section in nitrogen: 190.8 Å²

## CC(=O)Nc1c(I)c(NC(C)=O)c(I)c(C(=O)O)c1I [Diatrizoic acid]
[3]
  collision cross section in nitrogen: 179.4 Å²
[4]
  collision cross section in nitrogen: 183.6 Å²

## C1CN(CCOCCN2CCOCC2)CCO1 [4,4'-(Oxydiethylene)bis(morpholine)]
[2]
  collision cross section in nitrogen: 151.8 Å²
[3]
  collision cross section in nitrogen: 152.2 Å²
[4]
  collision cross section in nitrogen: 156.9 Å²

## Oc1cc(Cl)c(Cl)cc1Cl [2,4,5-Trichlorophenol sodium salt]
[1]
  collision cross section in nitrogen: 128.6 Å²

## O=c1cc(-c2ccccc2)oc2c1ccc1ccccc12 [alpha-Naphthoflavone]
[2]
  collision cross section in nitrogen: 161.7 Å²
[3]
  collision cross section in nitrogen: 160.7 Å²
[4]
  collision cross section in nitrogen: 185.7 Å²

## CCOC=C(C(=O)OCC)C(=O)OCC [Diethyl ethoxymethylenemalonate]
[4]
  collision cross section in nitrogen: 146.8 Å²

## COCC(=O)N(c1c(C)cccc1C)C(C)C(=O)OC (stereo not given) [Metalaxyl]
[2]
  collision cross section in nitrogen: 160.5 Å²
[3]
  collision cross section in nitrogen: 160.8 Å²
[4]
  collision cross section in nitrogen: 169.4 Å²

## CCCCCCCCCCCCN1CCCCCC1=O [Laurocapram]
[2]
  collision cross section in nitrogen: 185.5 Å²
[3]
  collision cross section in nitrogen: 184.7 Å²
[4]
  collision cross section in nitrogen: 185.4 Å²

## O=C1CCc2ccccc2O1 [3,4-Dihydrocoumarin]
[1]
  collision cross section in nitrogen: 127.6 Å²

## COc1cccc([C@H](O)C2CCN(CCc3ccc(F)cc3)CC2)c1OC [Volinanserin]
[2]
  collision cross section in nitrogen: 185 Å²
[3]
  collision cross section in nitrogen: 185 Å²
[4]
  collision cross section in nitrogen: 188 Å²

## O=C(O)CCCc1c[nH]c2ccccc12 [Indole-3-butyric acid]
[1]
  collision cross section in nitrogen: 154.8 Å²
